According to the NIST ThermoML archive (doi:10.1021/acs.jced.7b00585):
± gives the expanded uncertainty stated by the source.

Conditions: Crystal; visual observation

Normal melting temperature: 175 ± 2 °C
Structure (SMILES): CC1(C)COP(=O)(C(Nc2ccccc2)c2ccccc2)OC1 (stereo unspecified)
